Positions count from the first letter of the chain named. Where a name gives a salt, the structure may show the parent alone.

The target of one series is T1, DPAGT1 Arg301Cys (Homo sapiens, UniProt Q9H3H5, R301C).
T1 construct: combined with the LIC-adapted primers to amplify the complete DPAGT1 gene, including the desired mutations; 6xHis purification tag with TEV site (N, cleaved yes); made in house; host or cells: Spodoptera frugiperda Sf9 insect cells (baculovirus)
T1 sequence (Q9H3H5 1-408 R301C): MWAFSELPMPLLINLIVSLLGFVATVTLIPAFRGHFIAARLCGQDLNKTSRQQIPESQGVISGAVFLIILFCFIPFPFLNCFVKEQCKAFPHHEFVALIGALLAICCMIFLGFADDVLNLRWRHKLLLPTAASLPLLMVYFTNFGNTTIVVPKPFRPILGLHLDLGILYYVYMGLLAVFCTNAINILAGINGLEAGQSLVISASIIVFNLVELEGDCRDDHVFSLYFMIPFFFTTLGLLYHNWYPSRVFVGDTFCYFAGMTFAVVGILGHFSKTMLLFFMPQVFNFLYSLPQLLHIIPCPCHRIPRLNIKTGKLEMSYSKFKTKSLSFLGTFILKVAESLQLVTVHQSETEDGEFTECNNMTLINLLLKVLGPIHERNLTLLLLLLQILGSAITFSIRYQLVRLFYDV
Put plainly: Thermostability assay (label free differential scanning fluorimetry). It is filed as binding, H. sapiens. Conditions: 50 μM compound. On the procedure: (§1) Samples with a volume of 40 μl were prepared containing 0.5 mg/ml protein and 50 μM compound or 5% DMSO in GFB. A glass capillary was dipped into each sample, with the capillary held horizontally to ensure that the capillary was full of the sample. The capillaries were placed on the capillary holder on the Nanotemper Prometheus. Technical triplicates of each sample were prepared, and each experiment was conducted with biological triplicates of each protein. PR.ThermControl software was used to run the experiment and analyse the data. A melting curve from 20 °C – 95 °C at 5 °C/min was performed. The minimum of the first derivative of the 330/350nm ratio was used to determine the Tm1/2.
On the technique in general: In DSF a fluorescence change marks the thermal transition of the protein.

A further series concerns the target T2, DPAGT1 Val264Gly (Homo sapiens, UniProt Q9H3H5, V264G).
T2 construct: H. sapiens DPAGT1 (1-408, Val264Gly, N-terminal 6 x HIS tag, TEV cleavage site); 6xHis purification tag with TEV site (N, cleaved yes); made in house; host or cells: Spodoptera frugiperda Sf9 insect cells (baculovirus)
T2 sequence (Q9H3H5 1-408 V264G): T1 sequence (Q9H3H5 1-408 R301C) with V264G, C301R
Described as above. It is filed as binding, H. sapiens. Conditions: 50 μM compound. The method, then:
as §1

A further series deals with T3, DPAGT1 WT (Homo sapiens, UniProt Q9H3H5).
T3 construct: H. sapiens DPAGT1 (1-408, N-terminal 6 x HIS tag, TEV cleavage site); 6xHis purification tag with TEV site (N, cleaved yes); made in house; host or cells: Spodoptera frugiperda Sf9 insect cells (baculovirus)
T3 sequence (Q9H3H5 1-408): T1 sequence (Q9H3H5 1-408 R301C) with C301R
The series is described as above. The class given is binding, H. sapiens. Conditions: 50 μM compound. On the procedure:
as §1

Another series is described as follows: in vivo. On the set-up: species or system C57BL/6 mice. To be noted: ip; for concentration at 0.5 h / concentration at 1 h / concentration at 2 h / concentration at 4 h / concentration at 6 h / concentration at 24 h: female, C57BL/6, mouse, 30 mg/kg. The method, then:
Test compound was dosed to sixteen female C57BL/6 mice by intraperitoneal injection in a volume of 0.6 ml. To reconstitute TUN-8,8 for intraperitoneal injections, compound (1 mg) was dissolved in 0.1 ml ethanol and subsequently diluted with 0.9 ml 1% Tween 80 in Dulbecco’s PBS. The mixture was warmed to 37 °C, vortexed and sonicated followed by sterile filtration through a 0.2 μm filter. Blood samples were taken from the tail vein of the mice at pre-determined time intervals post-dose, and serum collected after 4 h on ice. 30 μl serum samples were prepared with 30 μl internal standard and 20 μl of water or spiked standard along with 240 μl of ACN/MeOH mix (3:1) to precipitate proteins. Samples were centrifuged 13 krpm for 5 minutes and 2 μl injected into LC-MS/MS system. Calibration standard was prepared 1 mg of TUN-8,8 to 1 ml DMSO and successively diluted by a factor of 3. TUN-9,9 IS solution was prepared to 200 μg/ml in DMSO.
LC-MS/MS was performed on an Agilent 1290 Infinity HPLC coupled to an Agilent 6460C triple quadrupole mass selective detector with electrospray ionization in positive mode. TUN-8,8 and TUN-9,9 (as an internal standard) were detected using their M+H precursors ions with 514.1 and 528.2 Da/z product ions produced in a collision cell using collision energy 12 V. Capillary voltage was 3000 V and ESI used jet stream technology with sheath voltage 2000 V. The column was an Agilent C18 Poroshell 120 2.7 μm with dimensions 2.1 x 50 mm at 40 °C. Mobile phase was water (A) and acetonitrile (B) each with 0.1% (v/v) formic acid. […] Water for LC-MS/MS was purified by a Barnstead Diamond system to 18.2 MΩ-cm resistivity. Acetonitrile (ACN) and Methanol were HPLC grade from Fisher (Fairlawn NJ, USA) and formic acid was supplied from EMD Millipore Corp (Darmstadt, Germany). DMSO was ACS grade manufactured by Amresco LLC in Solon Ohio USA.

For `N[C@H]1[C@H](O[C@H]2O[C@H](CO)[C@@H](O)[C@H](O)[C@H]2N)O[C@H](C[C@@H](O)[C@H]2O[C@@H](n3ccc(=O)[nH]c3=O)[C@H](O)[C@@H]2O)[C@H](O)[C@@H]1O` [TUN, α-D-glucosamine-(1”-11')-tunicamyl uracil dihydrochloride], the figures for the “Thermostability (Tm1/2) with added compound” value on DPAGT1 Arg301Cys, at DPAGT1 Val264Gly and on DPAGT1 WT were 80.9±0.5 °C, 82.6±0.1 °C and 83.0±0.4 °C, respectively.

In “in vivo” (first series), `CCCCCCCC(=O)N[C@H]1[C@H](O[C@H]2O[C@H](CO)[C@@H](O)[C@H](O)[C@H]2NC(=O)CCCCCCC)O[C@H](C[C@@H](O)[C@H]2O[C@@H](n3ccc(=O)[nH]c3=O)[C@H](O)[C@@H]2O)[C@H](O)[C@@H]1O` [TUN-8,8, Di-N-octanoyl-tunicamycin] came in with a concentration at 0.5 h of 42.7 ± 28.3 µM, a concentration at 1 h of 34.6 ± 7.4 µM, a concentration at 2 h of 23.7 ± 9.25 µM and a concentration at 4 h of 1.32 ± 1.09 µM. In “in vivo” (first series), this compound returned a concentration at 6 h of 0.21 ± 0.12 µM and a concentration at 24 h of 0.06 ± 0.08 µM. For the same compound, in the series “in vivo” (second series), the concentration at 0.5 h is 52.1 ± 34.5 µM, the concentration at 1 h came to 42.3 ± 9.04 µM, the concentration at 2 h stood at 28.9 ± 11.3 µM and the concentration at 4 h came to 1.61 ± 1.33 µM. In the series “in vivo” (second series), this compound came in with a concentration at 6 h of 0.26 ± 0.15 µM and a concentration at 24 h of 0.07 ± 0.1 µM. Also, the bioavailability entry in “in vivo” (mouse) is listed as “good bioavailability”.
